Test results reported in patent US4870097A, “Pharmaceutical use of derivatives of tryptophan” (priority 1984, dated 1989).
“Also recorded” adds a separate entry of the source.

Tests used:
[1] = system: activity of analgesic drugs; assay: Hot plate test: potentiation of analgesic drugs; format: in vivo, rats
Procedure: The method is that described by Eddy et al. (J. Pharmac. Exp. Ther. 107, 385 (1953)).
Groups of five male rats having a weight of about 150 g and which have not been fasting are used.
The animals are placed on a metal plate which is on the bottom of a transparent cylinder heated to 55°±1° C. by an azeotropic boiling mixture (1:1 acetone-ethyl formate). The time which passes between the moment at which the animal is placed on the hot plate and the moment at which it licks its feet or tries to jump out of the cylinder is defined as the reaction time. The control reaction time is measured 10 and 5 minutes before the administration of the drugs and 10, 20, 30, 45, 60, 90 minutes afterwards. The animals are left on the plate for a maximum period of 30 seconds.
The response to the administration of the product is considered positive if at least a doubling of the normal reaction time is seen. The results obtained are given in Table 2 which records the groups treated, the dose administered and the stay times on the plate expressed as the number of positive responses over the number treated.

endogenous opiates = assay: Tail Flick Test after transcutaneous shock: analgesic activity of endogenous opiates; format: in vivo, rats; details: for Average latency, 5': 5' after electric shock; for Average latency, 10': 10' after electric shock; for Average latency, 15': 15' after electric shock
Procedure: Influence of several of the compounds of the invention on the analgesic activity of endogenous opiates released under transcutaneous shock in rats measured by the Tail Flick Test
The method is that described by Lewis et al. (J. Neurosc. 1, 358 (1981). Male rats having a weight of about 200 g, which have not been fasting, are used.
The animals are stressed by the application to the front leg of a 60 Hz-2.5 mA current in pulses of a duration of one second every five seconds for 20 minutes.
This stress regime causes the release of endogenous opiates.

[2] = system: analgesic activity of DALA; assay: Tail Flick test: increase in the analgesic activity of DALA (i.c.v.); format: in vivo, rats; parameters: analgesic activity (Tail Flick), 10' / analgesic activity (Tail Flick), 20' / analgesic activity (Tail Flick), 30' / analgesic activity (Tail Flick), 45' / analgesic activity (Tail Flick), 60' / analgesic activity (Tail Flick), AVERAGE: scale not given here; details: for analgesic activity (Tail Flick), AVERAGE: average 10'-60'
Procedure: In order to check one of the possible mechanisms for the action of the compounds of the invention, that is, their possible inhibition of the enzymatic degradation of endogenous enkephalins, the following experiment was carried out:
A cannula was implanted in the right lateral ventricle of male rats having a weight of 150-200 g (groups of five animals were used) in order to allow the intracerebroventricular (i.c.v.) administration of drugs according to the method of Noble et al (Life Science 6, (1970) 281-291).
The animals were subsequently treated (i.c.v.) with 3 μg of D-ala-methionine-enkephalinamide (DALA) immediately after an injection (i.c.v.) of the compounds under study at the doses given in Table 4. Analgesia was tested for by the Tail Flick method already mentioned, at the times

[3] = system: tolerance induced by morphine; assay: Antagonism to the development of tolerance to repeated administration of morphine HCl (tail flick); format: in vivo, rats
Procedure: Several of the compounds of the invention were examined to determine any capacity to antagonise the development of tolerance induced by morphine. Groups of six male rats having a weight of about 200-250 were used.
At intervals of 24 hours from the first treatment (time 0), each animal (except for the control group treated with a physiological solution) received 3 mg/kg of morphine hydrochloride i.p. together with 3 mg/kg i.p. of the compounds indicated (with the exception of the group treated solely with morphine).
The determination of the threshold for the pain stimulus was effected at 15°, 30', 45' and 60' intervals from the treatment by the "tail flick" test.

[4] = system: guinea pig gall bladder contracted with CCK-8; assay: Anti-CCK activity on guinea pig gall bladders in vitro; format: biochemical; details: CCK-8 10 ng/ml, concentration antagonising 50% of contracting effect
Outline: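 Longitudinal gall bladder strips in Krebs at 32° C, gassed with O2/CO2 95:5, were contracted with CCK-8 at 10 ng/ml and contractions recorded isometrically via force transducer. ED50 in mcg/ml is the compound concentration antagonising 50% of CCK contraction, derived by regression over at least three experiments.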

[5] = acetylsalicylic acid 100 + C. 26 5 mg/kg i.p.
[6] = acetylsalicylic acid 100 + C. 26 10 mg/kg i.p.
[7] = acetylsalicylic acid 100 + C. 26 20 mg/kg i.p.
[8] = propoxyphene 15 + C. 26 1 mg/kg i.p.
[9] = propoxyphene 15 + C. 26 2.5 mg/kg i.p.
[10] = propoxyphene 15 + C. 26 5.0 mg/kg i.p.
[11] = days 0-7, 3 mg/kg + morphine (row Morphine: alone)

Q: `CCCCCCc1ccc(C(=O)N[C@@H](Cc2c[nH]c3ccccc23)C(=O)O)cc1` [Compound 26] was tested. Which “Positive Total X/25” value [1, 5] did it give?
A: 15

Q: What about the “positive responses over the number treated, 10'” value [1, 5] of the same molecule?
A: 3/5

Q: What about the “positive responses over the number treated, 20'” value [1, 5] of the same molecule?
A: 2/5

Q: What about the “positive responses over the number treated, 30'” value [1, 5] of the same molecule?
A: 4/5

Q: And the “positive responses over the number treated, 45'” value [1, 5]?
A: 4/5

Q: What about the “positive responses over the number treated, 60'” value [1, 5] of the same molecule?
A: 2/5

Q: And the “Positive Total X/25” value [1, 6]?
A: 21

Q: What about the “positive responses over the number treated, 10'” value [1, 6] of the same molecule?
A: 5/5

Q: What about the “positive responses over the number treated, 20'” value [1, 6] of the same molecule?
A: 4/5

Q: And the “positive responses over the number treated, 30'” value [1, 6]?
A: 5/5

Q: What about the “positive responses over the number treated, 45'” value [1, 6] of the same molecule?
A: 4/5

Q: What about the “positive responses over the number treated, 60'” value [1, 6] of the same molecule?
A: 3/5

Q: What about the “Positive Total X/25” value [1, 7] of the same molecule?
A: 23

Q: And the “positive responses over the number treated, 10'” value [1, 7]?
A: 4/5

Q: What about the “positive responses over the number treated, 20'” value [1, 7] of the same molecule?
A: 5/5

Q: What about the “positive responses over the number treated, 30'” value [1, 7] of the same molecule?
A: 5/5

Q: What about the “positive responses over the number treated, 45'” value [1, 7] of the same molecule?
A: 5/5

Q: And the “positive responses over the number treated, 60'” value [1, 7]?
A: 4/5

Q: What about the “Positive Total X/25” value [1, 8] of the same molecule?
A: 15

Q: And the “positive responses over the number treated, 10'” value [1, 8]?
A: 2/5

Q: And the “positive responses over the number treated, 20'” value [1, 8]?
A: 3/5

Q: And the “positive responses over the number treated, 30'” value [1, 8]?
A: 4/5

Q: And the “positive responses over the number treated, 45'” value [1, 8]?
A: 3/5

Q: What about the “positive responses over the number treated, 60'” value [1, 8] of the same molecule?
A: 3/5

Q: And the “Positive Total X/25” value [1, 9]?
A: 20

Q: What about the “positive responses over the number treated, 10'” value [1, 9] of the same molecule?
A: 3/5

Q: And the “positive responses over the number treated, 20'” value [1, 9]?
A: 5/5

Q: And the “positive responses over the number treated, 30'” value [1, 9]?
A: 5/5

Q: What about the “positive responses over the number treated, 45'” value [1, 9] of the same molecule?
A: 4/5

Q: What about the “positive responses over the number treated, 60'” value [1, 9] of the same molecule?
A: 3/5

Q: What about the “Positive Total X/25” value [1, 10] of the same molecule?
A: 24

Q: What about the “positive responses over the number treated, 10'” value [1, 10] of the same molecule?
A: 4/5

Q: What about the “positive responses over the number treated, 20'” value [1, 10] of the same molecule?
A: 5/5

Q: What about the “positive responses over the number treated, 30'” value [1, 10] of the same molecule?
A: 5/5

Q: What about the “positive responses over the number treated, 45'” value [1, 10] of the same molecule?
A: 5/5

Q: What about the “positive responses over the number treated, 60'” value [1, 10] of the same molecule?
A: 5/5

Q: And the “analgesic activity of propoxyphene (in words)” value ([1]; with propoxyphene, 2.5 mg/kg i.p. (double), 5 mg/kg i.p. (maximum effect))?
A: at least double the analgesic activity of propoxyphene; also recorded: a maximum effect

Q: What about the “Average latency, 5'” value (endogenous opiates; 0.5 mg/kg i.v. + stress) of the same molecule?
A: 6.62 ± 0.72 s

Q: And the “Average latency, 5'” value (endogenous opiates; 2 mg/kg i.v. + stress)?
A: 11.0 ± 0.65 s

Q: What about the “Average latency, 10'” value (endogenous opiates; 0.5 mg/kg i.v. + stress) of the same molecule?
A: 6.1 ± 0.61 sec.

Q: And the “Average latency, 10'” value (endogenous opiates; 2 mg/kg i.v. + stress)?
A: 9.28 ± 0.78 sec.

Q: And the “Average latency, 15'” value (endogenous opiates; 0.5 mg/kg i.v. + stress)?
A: 5.52 ± 0.9 s

Q: And the “Average latency, 15'” value (endogenous opiates; 2 mg/kg i.v. + stress)?
A: 6.84 ± 0.73 s

Q: And the “analgesic activity (Tail Flick), 10'” value ([2]; 10(D) + 0.001 mg/kg (ICV))?
A: 62.44

Q: And the “analgesic activity (Tail Flick), 20'” value ([2]; 10(D) + 0.001 mg/kg (ICV))?
A: 73.94

Q: What about the “analgesic activity (Tail Flick), 30'” value ([2]; 10(D) + 0.001 mg/kg (ICV)) of the same molecule?
A: 67.94

Q: What about the “analgesic activity (Tail Flick), 45'” value ([2]; 10(D) + 0.001 mg/kg (ICV)) of the same molecule?
A: 40.38

Q: What about the “analgesic activity (Tail Flick), 60'” value ([2]; 10(D) + 0.001 mg/kg (ICV)) of the same molecule?
A: 34.06

Q: What about the “analgesic activity (Tail Flick), AVERAGE” value ([2]; 10(D) + 0.001 mg/kg (ICV)) of the same molecule?
A: 55.75 ± 7.84

Q: What about the “analgesic activity (Tail Flick), 10'” value ([2]; 10(D) + 0.01 mg/kg (ICV)) of the same molecule?
A: 80.54

Q: What about the “analgesic activity (Tail Flick), 20'” value ([2]; 10(D) + 0.01 mg/kg (ICV)) of the same molecule?
A: 82.66

Q: And the “analgesic activity (Tail Flick), 30'” value ([2]; 10(D) + 0.01 mg/kg (ICV))?
A: 70.42

Q: And the “analgesic activity (Tail Flick), 45'” value ([2]; 10(D) + 0.01 mg/kg (ICV))?
A: 45.9

Q: And the “analgesic activity (Tail Flick), 60'” value ([2]; 10(D) + 0.01 mg/kg (ICV))?
A: 68.9

Q: And the “analgesic activity (Tail Flick), AVERAGE” value ([2]; 10(D) + 0.01 mg/kg (ICV))?
A: 69.68 ± 6.53

Q: What about the “percentage variation in the latency time, day 0” value ([3]; day 0, 3 mg/kg i.p. + morphine HCl 3 mg/kg i.p. (row Morphine: alone)) of the same molecule?
A: 74.14%

Q: What about the “percentage variation in the latency time, day 1” value ([3]; day 1, 3 mg/kg i.p. + morphine HCl 3 mg/kg i.p. (row Morphine: alone)) of the same molecule?
A: 45.73%

Q: What about the “percentage variation in the latency time, day 2” value ([3]; day 2, 3 mg/kg i.p. + morphine HCl 3 mg/kg i.p. (row Morphine: alone)) of the same molecule?
A: 59.5%

Q: What about the “percentage variation in the latency time, day 3” value ([3]; day 3, 3 mg/kg i.p. + morphine HCl 3 mg/kg i.p. (row Morphine: alone)) of the same molecule?
A: 51.52%

Q: What about the “percentage variation in the latency time, day 4” value ([3]; day 4, 3 mg/kg i.p. + morphine HCl 3 mg/kg i.p. (row Morphine: alone)) of the same molecule?
A: 43.40%

Q: And the “percentage variation in the latency time, day 5” value ([3]; day 5, 3 mg/kg i.p. + morphine HCl 3 mg/kg i.p. (row Morphine: alone))?
A: 37.60%

Q: What about the “percentage variation in the latency time, day 6” value ([3]; day 6, 3 mg/kg i.p. + morphine HCl 3 mg/kg i.p. (row Morphine: alone)) of the same molecule?
A: 21.43%

Q: What about the “percentage variation in the latency time, day 7” value ([3]; day 7, 3 mg/kg i.p. + morphine HCl 3 mg/kg i.p. (row Morphine: alone)) of the same molecule?
A: 29.75%

Q: What about the “Area subtended (1)” value [3, 11] of the same molecule?
A: 366.7 Effect-Day

Q: And the “regression line % Effect versus Day” value [3, 11]?
A: % Effect = - 6.02 Day + 66.5

Q: What about the “Area 1 / Area Morphine” value ([3]; days 0-7, 3 mg/kg + morphine, ratio to morphine alone) of the same molecule?
A: 2.61

Q: What about the “Anti CCK-8 activity, ED50” value [4] of the same molecule?
A: 152.1 mg/L
